Source: patent publication US9012655B2, “Antimicrobial/adjuvant compounds and methods” (Denouamed, Inc., priority 2011, dated 2015)
Values after ≈ are worked out from the molar mass of the structure shown. Read-outs that look alike come from different tables or passages of the source.

Legend:
[1] = system: Staphylococcus aureus EUP MRSA002; experiment: MIC panel of challenge pathogens (CLSI), EUP MRSA002; format: cell-based
Experimental: The inocula for each bacterial strain were prepared by picking 5-10 distinct colonies from the culture plates and suspending them in the appropriate broth as per Clinical and Laboratory Standards Institute (CLSI) guidelines M07-A8, M24-A or M11-A7 as appropriate. The inoculum was resuspended by vigorous shaking on a vortex mixer for 15 s. The turbidity was then adjusted to McFarland standard 0.5 ([…]). The inoculum was further diluted in the appropriate media for MIC tests to give a final inoculum in each well of 2-8×10^5 CFU/ml. MICs were tested in the appropriate broth in accordance with the appropriate CLSI guidelines.
A stock solution of each compound was prepared at a concentration of 1.28 g/L in DMSO. The stock was further diluted in the appropriate media to give a top starting concentration of 128 mg/L in the assay. 100 μL of the appropriate media, as per CLSI guidelines, was dispensed into each well in columns 2-12. 200 μL of the each compound solution (at 256 mg/L) was dispensed into each well in column 1. 100 μL aliquots were pipetted from column 1 wells and dispensed into column 2 with a multichannel pipette (±2% coefficient of variation) thus diluting two-fold. 100 μL samples were then pipetted from column 2 wells and dispensed into column 3. The process was repeated through to column 10. The final 100 μL of diluted drug from column 10 was then discarded. Row 11 acted as a positive control (no compound, but organisms added), Row 12 acted as a negative control (no compound, and no organisms added).
100 μL of the appropriate inoculum suspension in the appropriate media, as per CLSI guidelines, was added to the appropriate wells. […] All plates were incubated in the dark under aerobic or anaerobic conditions at 30-37° C. for 24-48 hours, according to the appropriate CLSI guideline. Plates were read visually 24-48 hours post inoculation. Endpoints of 100% inhibition were determined (CLSI interpretation endpoints following visual examination).
MIC50, MIC80, and 100% inhibition results are reported below in μg/mL in the following Tables, indicating each compound tested against a given species and strain: […]

[2] = system: Ps. aeruginosa; experiment: Combination MICs for antibiotic adjuvant potential; format: cell-based
Experimental: (§1) Susceptibilities to the compounds were determined using the National Committee for Clinical Laboratory Standards (NCCLS) M7-A6 broth microdilution method. Cation-adjusted Mueller-Hinton broth (Ca^2+, 25 μg/mL; Mg^2+, 12.5 μg/mL) microdilution panels were prepared to contain antimicrobial doubling dilution concentrations of an appropriate range. DMSO (dimethylsulfoxide) controls were incorporated into the panel to mimic the quantity of DMSO used in dissolving some of the compounds at the higher concentrations. Each final panel well volume was 100 μL with a bacterial inoculum of 5×10^5 CFU (colony forming units)/mL of the relevant bacterium. Panels were read following 16 to 20 h of incubation at 35 degrees Celsius in ambient air. The MIC (minimum inhibitory concentration) was defined as the lowest concentration of antimicrobial inhibiting visible growth.
Generally following the procedure of Example 9, MICs of ampicillin, erythromycin, and azithromycin were determined against Ps. aeruginosa. Parallel to this effort, solutions were prepared which were identical. To each of these were added 0.5 μL of stock solution of a given compound of the present invention, then diluted to produce a final concentration of 125 μM, 60 μM, and/or 30 μM for determination of adjuvant activity. Compounds were determined to be antibiotic adjuvants if the mixture produced a lower MIC than that of the antibiotic agent alone.

[3] = target: AcpS enzyme (Escherichia coli, UniProt P24224); experiment: Measurement of AcpS inhibition ([3H]acetyl-CoA incorporation into apo-ACP); format: biochemical; settings: % activity vs blank-subtracted counts
Experimental: [^3H]Acetyl-CoA was mixed as 1 volume of Perkin Elmer NET290 radiolabeled stock (e.g. 0.1 mCi/ml, 3.7 Ci/mmol in Na-acetate, pH 4.5-5.0=27 μM) with 1.2 volumes of 1 mM unlabelled acetyl-CoA (Sigma). Trichloroacetic acid was prepared as a 10% w/v solution. Bovine serum albumin was prepared as a 25 mg/ml solution in water. DTT was prepared as a 50 mM solution in water.
• 1. A standard reaction contained the following in a total volume of 10 μl:
• 2. Tubes were incubated at RT. [^3H]acetyl-CoA was added last to start the reaction. To stop the reaction, 2 μl was removed to a 1.5-ml microfuge tube containing 800 μl cold 10% TCA. Up to four time points were collected for each reaction, e.g. at 5 min, 10 min, 30 min, and 60 min. • 3. 20 μl of 25 mg/ml BSA was added to each tube, mixed and incubated on ice for 10 min, then centrifuged at 12,000 g for 5 min to form a pellet. Supernatant was removed using P1000. • 4. Each pellet was washed twice with 800 μl of cold 10% TCA each time, then centrifuged at 12,000 g for 5 min after each wash. The supernatant was discarded. Each pellet was resuspended in 50 μl of formic acid. The suspension was transferred to a scintillation vial and radioactivity was measured in 2 ml of liquid scintillation cocktail.
The random (stochastic) error in scintillation counting is proportional to the square root of the counts (not dpm) accumulated in the counting period; i.e. 10% for 100, 3.3% for 1,000, 1% for 10,000, etc. Provided radioactive counts (dpm) are in the thousands, the assay provides useful data. Results are reported in terms of % activity with respect to the blank-subtracted counts for working substrate. A % activity of less than about 40% is indicative of AcpS enzyme inhibition by the test compound at that concentration.

[4] = system: E. coli D22; experiment: MIC, NCCLS M7-A6 broth microdilution, E. coli D22; format: cell-based; settings: 35 degrees Celsius; for MIC: Escherichia coli, D22, 16 to 20 h
Experimental: as §1

[5] = system: Methicillin-Resistant Staph. aureus (MRSA); experiment: MIC, NCCLS M7-A6 broth microdilution, MRSA; format: cell-based; settings: 16 to 20 h, 35 degrees Celsius; for MIC: Staphylococcus aureus, MRSA
Experimental: as §1

[6] = system: Streptococcus pneumoniae Group A; experiment: MIC against Streptococcus pneumoniae Group A; format: cell-based; settings: initial measurement, Todd Hewitt broth
Experimental: as §1
Generally following the procedure of Example 9, but using Todd Hewitt broth (beef heart digest) rather than Mueller-Hinton broth, MICs were initially measured against Streptococcus pneumoniae Group A for compounds of the present invention as follows: […]

[7] = EUPMRSA002, Staphylococcus aureus EUP MRSA002, read-out: 100% inhibition
[8] = EUPMRSA002, Staphylococcus aureus EUP MRSA002, read-out: MIC50 (50%)
[9] = EUPMRSA002, Staphylococcus aureus EUP MRSA002, read-out: MIC80 (80%)
[10] = Staphylococcus aureus EUP MRSA002

Chain of AcpS enzyme (P24224 whole entry): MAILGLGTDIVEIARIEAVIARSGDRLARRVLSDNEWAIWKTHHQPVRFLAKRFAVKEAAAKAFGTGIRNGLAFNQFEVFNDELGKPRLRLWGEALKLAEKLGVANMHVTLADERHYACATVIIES

| SMILES | MIC [1, 7] [µg/mL] | MIC50 [1, 8] [µg/mL] | MIC80 [1, 9] [µg/mL] | activity at 50 µM ([3]; test compound 50 uM) [%] | remaining activity at 500 µM ([3]; test compound 500 uM) [%] | MIC [4] [µM] | MIC [5] [µM] | other results |
| --- | --- | --- | --- | --- | --- | --- | --- | --- |
| CCCCc1cccc(-c2cc(-c3nnn[nH]3)sc2Cc2ccc(Cl)cc2)c1 [DNM0606, 5-(4-(3-Butylphenyl)-5-(4-chlorobenzyl)thiophen-2-yl)-1H-tetrazole] | ≤ 0.25 | ≤ 0.25 | ≤ 0.25 |  |  |  |  |  |
| Fc1ccc(-c2cc(-c3nnn[nH]3)sc2-c2ccc(F)c3ccccc23)c2ccccc12 [DNM0537, 5-(4,5-Bis(4-fluoronaphthalen-1-yl)thiophen-2-yl)-1H-tetrazole] | 1 (≈ 2.27 µM) | 0.5 (≈ 1.14 µM) | 1 (≈ 2.27 µM) | 1.28 | 0.14 | 125 (≈ 55.1 µg/mL) | 2 (≈ 0.881 µg/mL) | fold lower MIC for erythromycin ([2]; compound at 30 μM): ≤ 7 fold |
| Cc1cc(Cl)ccc1-c1cc(-c2nnn[nH]2)sc1-c1ccc(Cl)cc1C [DNM0488, 5-(4,5-Bis(4-chloro-2-methylphenyl)thiophen-2-yl)-1H-tetrazole] | 0.5 (≈ 1.25 µM) | 0.5 (≈ 1.25 µM) | 0.5 (≈ 1.25 µM) | 11.5 | 0.32 | 125 (≈ 50.2 µg/mL) | 4 (≈ 1.61 µg/mL) |  |
| Clc1ccc(-c2cc(-c3nnn[nH]3)sc2-c2ccc(Cl)cc2)cc1 [DNM0487, 5-(4,5-Bis(4-chlorophenyl)thiophen-2-yl)-1H-tetrazole] | 1 (≈ 2.68 µM) | 1 (≈ 2.68 µM) | 1 (≈ 2.68 µM) | 3.34 | 0.08 | > 125 | 8 (≈ 2.99 µg/mL) | MIC ([2]; Pseudomonas aeruginosa, compound alone, read-out: standalone MIC): > 2000 µM |
| CC(C)c1cc(Cl)ccc1-c1cc(-c2nnn[nH]2)sc1-c1ccc(Cl)cc1C(C)C [DNM0548, 5-(4,5-Bis(4-chloro-2-iso-propylphenyl)thiophen-2-yl)-1H-tetrazole] | ≤ 0.25 | ≤ 0.25 | ≤ 0.25 | 3.1 | 0.1 | 60 (≈ 27.4 µg/mL) | 4 (≈ 1.83 µg/mL) | MIC [6]: < 0.25 µM; fold lower MIC for ampicillin ([2]; compound at 125 μM): up to 125 fold; fold lower MIC for erythromycin ([2]; compound at 125 μM): up to 125 fold |
| Cc1ccc(Cl)cc1-c1cc(-c2nnn[nH]2)sc1-c1cc(Cl)ccc1C [DNM0508, 5-(4,5-Bis(5-chloro-2-methylphenyl)thiophen-2-yl)-1H-tetrazole] | 1 (≈ 2.49 µM) | 1 (≈ 2.49 µM) | 1 (≈ 2.49 µM) | 44.9 | 0.1 | > 125 | 4 (≈ 1.61 µg/mL) |  |
| CN[C@H](CC(C)C)C(=O)N[C@H]1C(=O)N[C@@H](CC(N)=O)C(=O)N[C@H]2C(=O)N[C@H]3C(=O)N[C@H](C(=O)N[C@H](C(=O)O)c4cc(O)cc(O)c4-c4cc3ccc4O)[C@H](O)c3ccc(c(Cl)c3)Oc3cc2cc(c3O[C@@H]2O[C@H](CO)[C@@H](O)[C@H](O)[C@H]2O[C@H]2C[C@](C)(N)[C@H](O)[C@H](C)O2)Oc2ccc(cc2Cl)[C@H]1O [Vancomycin, reference compound] |  |  |  |  |  |  |  | MIC ([1]; Staphylococcus aureus, EUPMRSA002, read-out: 100% inhibition): 0.5 µg/mL (≈ 0.345 µM); MIC50 ([1]; Staphylococcus aureus, EUPMRSA002, read-out: MIC50 (50%)): 0.5 µg/mL (≈ 0.345 µM); MIC80 ([1]; Staphylococcus aureus, EUPMRSA002, read-out: MIC80 (80%)): 0.5 µg/mL (≈ 0.345 µM) |
| Cc1cc(Cl)ccc1-c1cc(-c2nnn[nH]2)sc1-c1ccc(C)c2ccccc12 [DNM0576, 5-(4-(4-Chloro-2-methylphenyl)-5-(4-methylnaphthalen-1-yl)thiophen-2-yl)-1H-tetrazole] | 0.5 (≈ 1.2 µM) | 0.5 (≈ 1.2 µM) | 0.5 (≈ 1.2 µM) | 5.88 | 0.15 | > 125 | 4 (≈ 1.67 µg/mL) | MIC [6]: 0.5 µM (≈ 0.208 µg/mL) |
| CC(C)c1cc(Cl)ccc1-c1cc(C(=O)O)sc1-c1ccc(Cl)cc1C(C)C [DNM0566, 4,5-Bis(4-chloro-2-isopropylphenyl)thiophene-2-carboxylic acid] | ≤ 0.25 | ≤ 0.25 | ≤ 0.25 |  |  |  |  |  |
| Clc1ccc(Cc2sc(-c3nnn[nH]3)cc2-c2cccc(CC3CCCC3)c2)cc1 [DNM0610, 5-(5-(4-Chlorobenzyl)-4-(3-(cyclopentylmethyl)phenyl)thiophen-2-yl)-1H-tetrazole] | 0.5 (≈ 1.15 µM) | 0.5 (≈ 1.15 µM) | 0.5 (≈ 1.15 µM) |  |  |  |  |  |
| Cc1ccc(-c2cc(-c3nn[nH]n3)cc(-c3ccccc3-c3ccccc3)c2)c2ccccc12 [DNM0474] |  |  |  |  |  |  |  | % AcpS activity at 50 uM ([3]; test compound 50 uM): 15.08%; % AcpS activity @ 500 uM ([3]; test compound 500 uM): 0.3%; 100% inhibition [1, 10]: 0.5 µg/mL; MIC50 (50%) [1, 10]: 0.5 µg/mL (≈ 1.14 µM); MIC80 (80%) [1, 10]: 0.5 µg/mL (≈ 1.14 µM); MIC E coli D22 ([4]; 16 to 20 h): >125 µM; MIC MRSA [5]: 2 µM (≈ 0.877 µg/mL) |
